Measured values taken from the METLIN SMRT retention time set (Domingo-Almenara et al. 2019).

Assay: gradient 5% acetonitrile 3 min, to 50% in 2 min, to 85% in 15 min, held 3 min, 100 µL/min
Conditions: column: Zorbax Extend-C18 2.1 x 50 mm; eluents: water / acetonitrile, 0.1% formic acid
How it was run: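 Each retention time is based on an adduct peak selected computationally and verified by manual inspection. Measurements used HPLC–quadrupole time-of-flight mass spectrometry in positive and negative ionization mode on mixtures of ~100 pure standards. Chromatography ran on a Zorbax Extend-C18 column (2.1 × 50 mm, 1.8 μm) at 100 μL/min with water and acetonitrile, each containing 0.1% formic acid, and dead and dwell volumes of 40 μL and 900 μL.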

## CCS(=O)(=O)N1CC(=O)N(c2cc(C)ccc2C)C(C)(C(=O)NC2CCCCCC2)C1 (stereo unspecified)
  RP-LC retention time: 951 s

## Cc1cccc(S(=O)(=O)N2C[C@H](c3nc(-c4cccnc4)no3)[C@@H](C)C2)c1
  RP-LC retention time: 914 s

## CC(C)(C)c1ccc2c(c1)N(Cc1nc(-c3ccccc3Cl)no1)C(=O)CO2
  RP-LC retention time: 1240 s

## Cc1noc(-c2cccc(OC3CN(C(=O)CN4C(=O)CCC4=O)C3)c2)n1
  RP-LC retention time: 762 s

## O=C(Nc1nc(-c2ccc(F)cc2)cs1)c1c(-c2ccccc2)nc2n1CCS2(=O)=O
  RP-LC retention time: 1000 s

## O=C(CC1CCN(C(=O)c2ccc3oc(-c4ccccc4)nc3c2)CC1)NC1CC1
  RP-LC retention time: 728 s

## O=C1c2ccccc2C(=O)c2c1cccc2N1CCCC(CO)C1 (stereo unspecified)
  RP-LC retention time: 635 s

## CCN1CCN(c2nc3c(s2)CN(C(=O)CCC(C)C)CC3)CC1
  RP-LC retention time: 614 s

## COc1ccccc1CCNC(=O)Cn1cc(S(=O)(=O)c2ccccc2)c2ccccc21
  RP-LC retention time: 898 s

## CN1CCC(c2c[nH]c3ccccc23)C1 (stereo unspecified)
  RP-LC retention time: 648 s

## COc1ccc(CCc2nc3nccc(-c4ccc(F)cc4)n3n2)cc1OC
  RP-LC retention time: 865 s

## CC(C)c1ccc(NC(=O)C2(Cc3cccnc3)CCCCC(=O)N2)cc1 (stereo unspecified)
  RP-LC retention time: 669 s

## COc1ccc(Cc2nnc3sc(-c4ccccc4)nn23)cc1
  RP-LC retention time: 810 s

## CC(CCNc1ccc(-c2nc(-c3cccc(F)c3)no2)cn1)N1CCCCCC1 (stereo unspecified)
  RP-LC retention time: 782 s

## O=C(Nc1cccc(Br)c1)C1CCN(c2nccnc2Sc2ccccc2)CC1
  RP-LC retention time: 1190 s

## CC1CCCCN1CCNC(=O)CCCn1c2ccccc2c2cnn(C)c(=O)c21 (stereo unspecified)
  RP-LC retention time: 632 s

## CC1CCCN(CC2CCN(S(=O)(=O)c3ccc4c(c3)CCC4)CC2)C1 (stereo unspecified)
  RP-LC retention time: 719 s

## O=C(NCc1ccccc1F)C1CCN(c2nnc3ccc(C(F)(F)F)cn23)CC1
  RP-LC retention time: 764 s

## O=C(C1CCN(S(=O)(=O)c2ccc(-c3noc(C4CC4)n3)cc2)CC1)N1CCCCCC1
  RP-LC retention time: 1030 s

## CN(C)CCCCN1CCc2c(n(C)c3ccccc23)C1=O
  RP-LC retention time: 650 s

## CCCn1c(=O)c(C)nc2cc(-c3noc(CNS(=O)(=O)c4ccccc4)n3)ccc21
  RP-LC retention time: 853 s

## Oc1ccccc1Nc1ccccn1
  RP-LC retention time: 597 s

## CCCn1cc(S(=O)(=O)Nc2ccc(F)cc2Cl)c2cccnc21
  RP-LC retention time: 989 s

## O=C(Nc1ccccc1F)C1CCc2nc(N3CCOCC3)ncc2C1 (stereo unspecified)
  RP-LC retention time: 778 s

## CCCc1cc(C2CCCN2C(=O)Nc2ccccc2OC)no1 (stereo unspecified)
  RP-LC retention time: 901 s

## Cc1nc(S(=O)(=O)N2CCc3c(c(-c4nnc(-c5ccc(F)cc5)o4)nn3C)C2)cn1C
  RP-LC retention time: 703 s

## CCCn1cnc2cc(CNC(=O)c3cc4ccccc4[nH]3)ccc21
  RP-LC retention time: 659 s

## Cc1ccc(CNC(=O)C2CCCN(S(=O)(=O)c3cc(-c4noc(C)n4)cs3)C2)cc1 (stereo unspecified)
  RP-LC retention time: 974 s

## Brc1ccc(-c2nc(NCCC3=CCCCC3)c3ccccc3n2)cc1
  RP-LC retention time: 1010 s

## O=C(Nc1cc(F)cc(F)c1)c1c(O)c2cccnc2n(-c2ccc(F)cc2)c1=O
  RP-LC retention time: 918 s

## O=C(O)c1cc(-c2ccccc2)nc2ccccc12
  RP-LC retention time: 849 s

## Cc1ccc(NC(=O)CNS(=O)(=O)c2cc(-c3noc(C)n3)sc2C)nc1
  RP-LC retention time: 730 s

## CC1CCCCC1NC(=O)c1sc2ncccc2c1-n1cccc1 (stereo unspecified)
  RP-LC retention time: 1260 s

## CCN1C(=O)C(CC(=O)NCCCN(C)C)Sc2ncccc21 (stereo unspecified)
  RP-LC retention time: 559 s

## Cc1nc(N2CCN(c3ccccn3)CC2)nc2c1C(=O)CC(C)C2 (stereo unspecified)
  RP-LC retention time: 652 s

## Cc1c(-c2noc(-c3cccc(F)c3)n2)nnn1-c1ccccc1
  RP-LC retention time: 1090 s

## CCC(=O)Nc1ccc(S(=O)(=O)NCCOc2ccc3c(c2)OCO3)cc1
  RP-LC retention time: 830 s

## O=C(c1ccc(-c2ccc(N3CCCCC3)nc2)cc1)N1CCOCC1
  RP-LC retention time: 607 s

## COc1cccc(-c2nn3c(COc4ccc(Br)cc4)nnc3s2)c1OC
  RP-LC retention time: 1130 s

## O=S(=O)(c1cc(-c2noc(C3CCCC3)n2)cs1)N1CCCC1
  RP-LC retention time: 1110 s

## O=C(CC1CCCC1)N1CCCC(c2nc(-c3ccncc3)n[nH]2)C1 (stereo unspecified)
  RP-LC retention time: 577 s

## CCOC(=O)c1c(S(=O)(=O)N2CCC(C(=O)Nc3cc(C)ccc3OC)CC2)c(C)n(C)c1C
  RP-LC retention time: 936 s

## CN1C(=O)COc2ccc(-c3csc(NC(=O)Cc4ccccc4)n3)cc21
  RP-LC retention time: 898 s

## Cc1ccc(OCC(=O)Nc2nnc(C3CC(=O)N(c4ccc(Cl)cc4)C3)o2)cc1 (stereo unspecified)
  RP-LC retention time: 788 s

## COc1cc(C(=O)N2CCN(c3cc(=O)n(C(C)C)c(=O)n3C(C)C)CC2)cc(OC)c1OC
  RP-LC retention time: 800 s

## COC(=O)c1cccc(COC(=O)C2=CN(Cc3ccccc3)S(=O)(=O)N=C2C)c1
  RP-LC retention time: 1060 s

## O=C(NCc1ccc(Cl)cc1)C1CCc2nc(N3CCOCC3)ncc2C1 (stereo unspecified)
  RP-LC retention time: 704 s

## COc1ccc2c(c1)C1(CCN(C(=O)Cc3ccc(Cl)cc3)C1)C(=O)N2C (stereo unspecified)
  RP-LC retention time: 873 s

## Cn1nc(C2CCN(S(=O)(=O)c3cccc(Cl)c3)CC2)n(C2CCCC2)c1=O
  RP-LC retention time: 925 s

## CCn1nc(C)cc1C(=O)Nc1nc2c(s1)CC(C)CC2 (stereo unspecified)
  RP-LC retention time: 935 s

## COCCNC(=O)NCc1ccc2c(c1)N(C(=O)c1ccc(C)cc1)CC2
  RP-LC retention time: 723 s

## O=C(Cn1ccc2cc(S(=O)(=O)N3CCCCCC3)ccc21)N1CCN(c2ccccn2)CC1
  RP-LC retention time: 707 s

## Cc1ccc2nc(-c3cccc(Cl)c3)c(Nc3ccccc3C)n2c1
  RP-LC retention time: 807 s

## CCn1ncc(NC(=O)CCc2ccccc2)c(N2CCOCC2)c1=O
  RP-LC retention time: 800 s

## COc1nn(C)cc1C(=O)NCc1ccco1
  RP-LC retention time: 599 s

## COc1ccccc1CNS(=O)(=O)c1ccc(F)c(C(=O)Nc2cc(C)ccc2C)c1
  RP-LC retention time: 967 s

## COc1ccc(NC(=O)C2CCN(S(=O)(=O)c3ccc4c(c3)CCCN4C(C)=O)CC2)cc1
  RP-LC retention time: 780 s

## COc1ccc(CC(=O)N2C[C@@H]3C[C@H](NS(C)(=O)=O)[C@H]2C3)cc1Cl
  RP-LC retention time: 651 s

## CCN1C(=O)CCc2cc(NC(=O)c3ccn(CC)n3)ccc21
  RP-LC retention time: 701 s

## CCC(C)NS(=O)(=O)c1cc(-c2c(C)noc2NC(C)=O)ccc1OC (stereo unspecified)
  RP-LC retention time: 720 s

## Cc1ccc(C(=O)N2CCC(COc3ccc(C(=O)NC(C)C)cc3)CC2)c(C)c1
  RP-LC retention time: 931 s

## O=C(NCc1ccco1)C1CCCN(c2nnc3c(Cl)cccn23)C1 (stereo unspecified)
  RP-LC retention time: 627 s

## Cc1ccc(C2C=CC(C#N)=CN2Cc2ccccc2)cc1 (stereo unspecified)
  RP-LC retention time: 1210 s

## Cc1cc(C)n(CC(O)COc2ccc(C(=O)c3ccc(Cl)cc3)cc2)n1 (stereo unspecified)
  RP-LC retention time: 848 s

## O=C(Nc1ccc(Cl)cc1)c1cnc(-c2ccc(F)cc2)nc1-c1ccncc1
  RP-LC retention time: 986 s

## Cc1ccccc1-c1nc(-c2ccc(-n3ccnc3)nc2)no1
  RP-LC retention time: 814 s

## CC(=O)N1c2ccc(S(=O)(=O)NCc3ccc4c(c3)CCN4C(=O)CC(C)C)cc2CC1C (stereo unspecified)
  RP-LC retention time: 874 s

## O=C(Cn1ccn2nc(-c3ccc(Cl)cc3)cc2c1=O)N1CCCc2ccccc21
  RP-LC retention time: 1080 s

## COc1ccc(OC)c(COCC(O)CN2CCN(Cc3ccccc3)CC2)c1 (stereo unspecified)
  RP-LC retention time: 557 s

## Cc1nc(N2CCCC(C(=O)NC3CCCC3)C2)c2c(C)c(C)oc2n1 (stereo unspecified)
  RP-LC retention time: 799 s

## CC(C)c1nnc(NC(=O)C2CCN(C(=O)c3ccccc3F)CC2)s1
  RP-LC retention time: 727 s

## CC1CCN(CCCNC(=O)C2c3ccccc3C(=O)N(C)C2c2cccs2)CC1 (stereo unspecified)
  RP-LC retention time: 624 s

## COc1cc(NC(=O)C2Nc3cc(F)ccc3S(=O)(=O)N2)cc(OC)c1OC (stereo unspecified)
  RP-LC retention time: 718 s

## O=C(C1COc2ccccc2O1)N1CCN(Cc2nc3ccccc3[nH]2)CC1 (stereo unspecified)
  RP-LC retention time: 578 s

## CC1Oc2ccccc2N(Cc2nc(-c3ccccc3)no2)C1=O (stereo unspecified)
  RP-LC retention time: 1040 s

## Cc1ncn(CC(=O)Nc2ccccc2F)c(=O)c1C
  RP-LC retention time: 628 s

## O=C1c2ccccc2C(O)(c2ccccc2)N1c1ccncc1 (stereo unspecified)
  RP-LC retention time: 702 s

## O=C(NCCCN1CCCC1)c1cc2n(n1)CCCN(Cc1ccc(Cl)cc1)C2=O
  RP-LC retention time: 640 s

## Nc1ncnc(N2CCc3ccccc32)c1[N+](=O)[O-]
  RP-LC retention time: 697 s

## CN1C2CCC1CC(OC(=O)C(CO)c1ccccc1)C2 (stereo unspecified)
  RP-LC retention time: 638 s

## O=C(Cn1nc2n(c1=O)CCCC2)Nc1cccc(Cl)c1
  RP-LC retention time: 662 s

## Cc1nnc2c(=O)n(CC(=O)N3CCN(c4ccccc4)CC3)c3cccnc3n12
  RP-LC retention time: 682 s

## O=C(NCc1cccc(C(F)(F)F)c1)c1csc(C(=O)NC2CCCC2)n1
  RP-LC retention time: 1000 s

## CCN1CCN(c2cc(-c3nc(-c4cccc(F)c4)no3)c3ccccc3n2)CC1
  RP-LC retention time: 821 s

## CCCNC(=O)NCCc1cn(CC)c2ncccc12
  RP-LC retention time: 612 s

## CCN1C(=O)c2ccccc2Oc2ccc(C(=O)NC3CC3)cc21
  RP-LC retention time: 751 s

## O=C(Nc1ccccc1)c1ccc(N2CCC(NCc3ccc(F)c(F)c3)C2)nc1 (stereo unspecified)
  RP-LC retention time: 568 s

## CCOC(=O)C1CCCN(c2c(NCC3COc4ccccc4O3)c(=O)c2=O)C1 (stereo unspecified)
  RP-LC retention time: 796 s

## COc1ccc(C(=O)Nc2ccc3c(c2)Sc2ncccc2C(=O)N3C)cc1OC
  RP-LC retention time: 712 s

## Cc1nc(-c2ccccn2)cc2nn(CC(=O)NCC3CCCO3)c(=O)n12 (stereo unspecified)
  RP-LC retention time: 604 s

## O=C(NC1CC1)c1nc(-c2cccs2)cs1
  RP-LC retention time: 835 s
